These results are taken from patent publication US11478445B2, “Method for treating acute myeloid leukemia” (Bionomics Limited, priority 2017, dated 2022).

Entries after “also recorded” stand apart in the source; their conditions may differ.

Common to all, as to format: cell-based
Experiment [1] concerns HL-60 AML cell line. As to the kind of experiment: MTS proliferation assay, HL-60. How it is done:
(§1) The cell lines (MV4; 11 and HL-60) were plated in 96-well plates at 1×10^4 cells/well in 50 uL of complete growth media. Cells were plated in triplicate wells for each dose being tested. EX 1 (in DMSO), Oxi4503 (EndoTherm, Batch #EN09013, in water), CA4P (Selleckchem, Cat #S7204, in water) and Plinabulin (Selleckchem, Cat #S1176, in DMSO) was reconstituted immediately prior to use at 10 mM in appropriate diluent as indicated. The drug was prepared 2× concentrated in media and 50 uL added to respective wells (0.1% DMSO or water, final concentration). After 72 hours, 20 μL of CellTiter 96 AQueous One Solution reagent (Promega cat #G3581) was added to each well and the plate incubated for 2 h at 37° C. before absorbance was measured at 492 nm using a Thermo Multiskan Ascent96/384 Plate Reader.
(§2) To compare the efficacy of EX 1 with other tubulin polymerisation inhibitors, MTS proliferation assays were performed on MV4; 11 and HL-60 AML cell lines (Table 1). […] Cells were cultured with the compounds for 72 hours before viability was measured by the addition of CellTiter 96 AQueous One Solution reagent (Promega cat #G3581) and absorbance measured at 492 nm. IC50 was calculated using the absolute IC50 method in GraphPad Prism 6.

Experiment [2] relates to Noxa. Briefly: Western blot for Noxa in AML cell lines. The note with it: six AML cell lines, 10 nM and 100 nM, 8 h. On the procedure: Cells were harvested (4×10^6 for cell lines and 7×10^6 for L-AMLs) and washed 3 times with cold PBS (centrifuged at 4° C.). Lysis buffer was prepared with NP40 Cell Lysis Buffer (ThermoFisher Scientific), cOmplete protease inhibitor (Roche, 046993116001), PhosStop (Roche, 04906837001) and Pefablock (Roche, 11585916001) at the recommended concentrations. After the washes, cells were resuspended in 50 μL of lysis buffer, vortexed and incubated on ice for 30 min. Samples were vortexed every 10 min. After 30 min incubation, samples were centrifuged at 14,000 g at 4° C. for 10 min and supernatants were transferred to tubes. Protein was quantified using the DC Protein Assay kit (BioRad) per manufacturer's protocol. 50 μg of cell lines lysate or 20 μg of L-AML6 lysate were loaded for SDS-PAGE. Protein was transferred from the gels into PVDF membranes using a semi dry transfer apparatus (BioRad). […]
Once it was determined that this group of AML cell lines are highly sensitive to EX 1, the mechanism underlying this response was investigated. […]
Therefore, cells were treated with a range of doses of EX 1 for 8 h and 24 h, as described above, before protein extraction was performed. […] Noxa was readily detected in control lysate prepared from HEK293 cells.

Experiment [3] relates to AML cell lines. As to the kind of experiment: Cell cycle assay (PI staining). On the procedure: 2×10^5 cells were harvested into 5 mL tubes and washed 3 times with PBS. Cell pellets were resuspended in 300 μL of cold PBS while vortexing. Next, cells were permeabilised with 700 μL of cold (−20° C.) 100% ethanol added dropwise while vortexing at slow speed. Cell suspensions were incubated on ice for 30 min, centrifuged at 300 g for 10 min and cell pellets resuspended in 100 μL PI solution (0.1% Triton X-100, 100 μg/mL DNAse-free RNAse A-Sigma, and 40 µg/mL PI in PBS). Cell suspensions were incubated at 37° C. for 30 min in the dark. 200 μL of PBS was added to each tube before analysis on an LSRFortessa (BD Biosciences) flow cytometer. Results were analysed with FCS Express 4 Flow Research Edition software (De Novo Software).
For that, cells were plated at 10^6 cells/mL and treated with vehicle (DMSO) alone or a range of doses of EX 1 (0.1 nM, 1 nM, 10 nM and 100 nM) for 6 h, 8 h and 24 h. Cells were harvested for detection of ROS and superoxide anion (O2^·−) levels at 6 h and 24 h, for protein extraction at 8 h and 24 h, and for cell cycle analysis at 24 h.
Therefore, cell cycle analysis was performed by PI staining in the cell lines after 24 h of treatment with a range of doses of EX 1, as described above.

The subject of experiment [4] is MV4; 11 AML cell line. Briefly: MTS proliferation assay, MV4;11. How it is done:
as §1, §2
Background: Tetrazolium assays rely on reduction of a dye to a coloured formazan, in cell work by metabolically active cells.

Consider `COc1cc(C(=O)c2c(C)oc3c(O)c(OC)ccc23)cc(OC)c1OC` [EX 1, 2-Methyl-7-hydroxy-3-(3,4,5-trimethoxybenzoyl)-6-methoxybenzofuran], for which the “IC50 compared with Oxi4503, CA4P and Plinabulin” value in experiment [1] (HL-60, 72 h) is on record as “lowest IC50”; in experiment [4] (MV4;11, 72 h), “lowest IC50”. Moreover, the “potency relative to any other VDAs (times more potent)” value is “at least 10 times” in experiment [1] (HL-60, 72 h exposure) and “at least 10 times” in experiment [4] (MV4-11, 72 h exposure). For the same compound, the Noxa induction result in experiment [2] was “could only be detected in OCI-AML3 and ME1; also recorded: only observed in OCI-AML3 and ME1 lines”. In addition, the “cell cycle distribution (G2/M)” value in experiment [3] (HL60, KG1, OCI-AML3 and ME1, 24 h) was “G2/M cell cycle arrest”. Besides, the sub-G0 cell population entry in experiment [3] (KG1 and HL60, 24 h) is listed as “marked increases in the sub-G0 cell population; also recorded: increase in sub-G0 population starting at treatment with 10 nM”. The “percentage of cells in G2/M and G1” value in experiment [3] (MV4;11 and MOLM13, 24 h) is recorded as “dose-dependent reduction”. Moreover, the “sub-G0 population (apoptosis)” value in experiment [3] (MV4;11 and MOLM13, 24 h) is “underwent apoptosis as evidenced by the increase in sub-G0 population”. Further, in experiment [3] (MV4;11 and MOLM13, 24 h, 10 nM), the “cell cycle distribution (sub-G0, G2/M)” value was “marked apoptosis induction (sub-G0 gate) and G2/M reduction”.
